Test results from patent US20170027172A1, “USE OF SUBSTITUTE OXO TETRAHYDROQUINOLINE SULFONAMIDES OR SALTS THEREOF FOR RAISING STRESS TOLERANCE OF PLANTS” (BAYER CROPSCIENCE AKTIENGESELLSCHAFT, priority 2014, published 2017).

Target: T1, phosphatase ABI1 via the co-regulator RCAR11/PYR1 (Arabidopsis thaliana, UniProt O49686+P49597)
T1 sequence (O49686 1-191): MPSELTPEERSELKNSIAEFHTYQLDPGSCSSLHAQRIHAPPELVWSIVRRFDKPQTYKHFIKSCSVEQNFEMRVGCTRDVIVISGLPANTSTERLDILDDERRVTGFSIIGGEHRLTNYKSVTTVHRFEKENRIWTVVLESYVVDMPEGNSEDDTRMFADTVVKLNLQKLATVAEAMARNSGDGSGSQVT
T1 sequence (P49597 1-434): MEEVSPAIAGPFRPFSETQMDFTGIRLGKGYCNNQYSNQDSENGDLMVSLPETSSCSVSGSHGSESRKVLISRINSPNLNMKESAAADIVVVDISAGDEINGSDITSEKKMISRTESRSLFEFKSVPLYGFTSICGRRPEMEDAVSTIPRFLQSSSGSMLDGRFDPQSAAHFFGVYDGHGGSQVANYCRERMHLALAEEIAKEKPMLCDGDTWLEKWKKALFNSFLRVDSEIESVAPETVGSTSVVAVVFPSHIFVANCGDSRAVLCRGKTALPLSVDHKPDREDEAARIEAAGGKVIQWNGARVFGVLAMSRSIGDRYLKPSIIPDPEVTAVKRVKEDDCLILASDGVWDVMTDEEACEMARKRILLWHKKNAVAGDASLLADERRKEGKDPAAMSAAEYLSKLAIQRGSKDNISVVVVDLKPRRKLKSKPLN
Assay: In vitro inhibition of the phosphatase ABI1 via the co-regulator RCAR11/PYR1, MUP dephosphorylation
Format: biochemical
Parameters: dose or concentration left out as unconfirmed
Details: in a solution of DMSO and water; fluorescence at 460 nm
How it was run: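 Arabidopsis ABI1 (0.15 μg/well) with RCAR11/PYR1 (0.30 μg/well) in Tris-HCl pH 8, NaCl, MnCl2, DTT, Tween20; MUP substrate, 20 min at 35 °C, fluorescence ex 340/em 460 nm. Compounds tested at 5 mM in DMSO/water, optionally pre-treated with porcine liver esterase; inhibition banded ≥90/70/50/30%.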

- ABI1 inhibition: +++ (90%>inhibition≧70%)
Structure (SMILES): COC(=O)CCN1C(=O)CCc2cc(NS(=O)(=O)Cc3ccc(F)cc3)ccc21 [A51-158]
